# Measured values reported in patent US8470878B2, “Heterocyclic sulfonamide derivatives” (Novartis AG, priority 2011, dated 2013).
# Experiments:
# [1] = molecular target: T1, BRAF-MEK-ERK cascade (Homo sapiens, UniProt Q02750); test: BRAF-MEK-ERK enzymatic cascade assay (TR-FRET); assay type: biochemical; details: mean±SEM, n=3; 10 point dose response, 45 minutes pre-incubation
# T1 construct: human full length MEK1 kinase (Cat No. 14-706); purchased Upstate 14-557 (BRAF V599E); 14-706 (MEK1); 14-536 (ERK2)
# Text: A BRAF-MEK-ERK cascade assay is used to evaluate the effects of these compounds as inhibitors of the MAP kinase pathway. An enzymatic cascade assay is set up using recombinant human activated BRAF (V599E) kinase (Cat No. 14-557), human full length MEK1 kinase (Cat No. 14-706) and human full length active MAP Kinase 2/ERK2 (Cat No. 14-536) enzymes procured from Upstate. TR-FRET (Time resolved fluorescence resonance energy transfer) detection technology is used for the read out. […] The kinase reaction is stopped after 90 minutes with 10 mM EDTA and Lance detection mix (2 nM Eu-labeled phospho-serine/threonine antibody (Cat. No. AD0176-Perkin Elmer), 20 nM SA-APC (Cat No. CR130-100-Perkin Elmer) is added. The TR-FRET signal (Excitation at 340 nm, Emission at 615 nm and 665 nm) is read with 50 μs delay time on a Victor3 V fluorimeter. The data is calculated using the ratio of readings at 665 nm to 615 nm. The final concentration of DMSO is 2.5% in the assay. Compounds are screened at 10 μM concentration with pre-incubation of the enzymes in the presence of test compound for 45 minutes.
# Each individual IC50 is determined using a 10 point dose response curve generated by GraphPad Prism software Version 4 (San Diego, Calif., USA) using non linear regression curve fit for sigmoidal dose response (variable slope).
# These assays described above are fully detailed in Han, Shulin, et. al., Bioorganic & Medicinal Chemistry Letters (2005) 15, 5467-5473, and in Yeh, et. al., Clin Cancer Res (2007) 13 (5), 1576-1583.
# [2] = Pharmacokinetics in athymic nude rats; assay type: in vivo; details: rat; for AUC / clearance / half-life / Vd / bioavailability / Cmax: athymic nude, plasma; for bioavailability: p.o. (3 mg/kg) vs i.v. (0.5 mg/kg), oral bioavailability; for PK-parameters compared to Example 1: one-way analysis of variance
# Method: Pharmacokinetics in Athymic Nude Rats
# For pharmacokinetics studies, the following parameters were calculated by non-compartmental regression analysis using Winnonlin 5.0 software (Pharsight, Mountain View, Calif., USA): half life in plasma (t1/2term); plasma clearance (CL); plasma maximum concentration (Cmax); plasma area-under-the-concentration-time-curve (AUC); and percent oral bioavailability (F %).
# [3] = tested on: DUSP6 expression in A375 tumors; test: A375 B-RafV600E human melanoma model in rat, PK-PD experiment (DUSP6 expression in tumor, real time quantitative PCR); assay type: in vivo; details: A375 tumor bearing rats, single oral dose, at 12 h and 24 h post dosing; two-way analysis of variance, p=0.003 and p=0.006
# Method: A375 B-RafV600E Human Melanoma Model in Rat—PK-PD Experiment:
# A375 cells were thawed using a 37° C. water bath. Cells were transferred to a tube containing 10 mls of warm DMEM medium. The tube was centrifuged for 5 minutes at 1200 rpm and the supernatant was discarded. The cell pellet was re-suspended and transferred to a 75 cm^2 tissue culture flask containing 15 mls of medium and cultured at 37° C. in a 5% CO2 incubator.
# On the day of the cells implantation, cells were harvested (about 85% confluent), and re-suspended in cold medium containing 4 mg/ml of matrigel. This cell suspension was injected, subcutaneously, to athymic-nude pre-irradiated (500 rads) rats. Ten million cells (injection volume, 200 μL) were injected, subcutaneously, into the right flank region of the rats 24 hours after irradiation. Tumor bearing rats were randomized when the tumor volume reached approximately 500 mm^3 after about 15 to 20 days. Three rats were used for each time point.
# Rats were treated orally with a single dose of 10, 30 and 60 mg/kg p.o. of Example 1A and 30 mg/kg of Example 1B. […] The mRNA expression levels of two direct target genes of MEK substrate P-Erk (DUSP6 and SPRY4) and an indirect target (BMF) can be measured. […] The tumor samples were pulverized, extracted and studied for expression of the […] DUSP6 using a real time quantitative PCR.
IC50 [1] [nM],"AUC ([2]; iv, i.v. (0.5 mg/kg)) [µg·h/mL]","clearance ([2]; iv, i.v. (0.5 mg/kg)) [mL/h/kg]","half-life ([2]; iv, i.v. (0.5 mg/kg)) [h]","Vd ([2]; iv, i.v. (0.5 mg/kg)) [L/kg]",bioavailability [2] [%],"AUC ([2]; po, p.o. (3 mg/kg)) [µg·h/mL]","Cmax ([2]; po, p.o. (3 mg/kg)) [ng/mL]",Structure (SMILES),lowering levels of DUSP-6 in tumor [3],PK-parameters compared to Example 1 [2]
2.1 ± 0.58,70 ± 9,7.6,15.6 ± 1.7,0.17 ± 0.006,87,365 ± 45,9800 ± 700,"O=S(=O)(Nc1c(Nc2ccc(I)cc2F)c(F)c(F)c2ccoc12)C1(CC(O)CO)CC1 (racemic) [Example 1, 1-(2,3-Dihydroxy-propyl)-cyclopropanesulfonic acid [4,5-difluoro-6-(2-fluoro-4-iodo-phenylamino)-benzofuran-7-yl]amide]",–,–
2 ± 0.25,126 ± 3,4,19.9 ± 0.8,0.11 ± 0.006,132,994 ± 30,25600 ± 700,"O=S(=O)(Nc1c(Nc2ccc(I)cc2F)c(F)c(F)c2ccoc12)C1(C[C@H](O)CO)CC1 [Example 1A, (S)—N-(4,5-difluoro-6-((2-fluoro-4-iodophenyl)amino)benzofuran-7-yl)-1-(2,3-dihydroxypropyl)cyclopropane-1-sulfonamide]",significantly more effective than Example-1B,improved PK-parameters compared to Example 1
1.6 ± 0.1,100 ± 14,5.2,17.1 ± 1.8,0.125 ± 0.006,126,752 ± 84,25200 ± 2700,"O=S(=O)(Nc1c(Nc2ccc(I)cc2F)c(F)c(F)c2ccoc12)C1(C[C@@H](O)CO)CC1 [Example 1B, (R)—N-(4,5-difluoro-6-((2-fluoro-4-iodophenyl)amino)benzofuran-7-yl)-1-(2,3-dihydroxypropyl)cyclopropane-1-sulfonamide]",–,improved PK-parameters compared to Example 1
